# Assay results: PubChem BioAssay AID602264 (The Scripps Research Institute Molecular Screening Center, 2012)
# Activity calls are given as the source filed them. How the calls were made is not given here.
# Biological target: Mu-type opioid receptor (Homo sapiens) + Delta-type opioid receptor (Homo sapiens) (UniProt P35372+P41143)
# Assay: agonists of MOR-DOR heterodimerization, dose response, counter-screen for MC4R biased agonist project, cell-based, luminescence (AID 602264)
# Details: cell-based OPRM1-OPRD1 heterodimerization
# Mu-type opioid receptor (Homo sapiens) + Delta-type opioid receptor (Homo sapiens), sequence (P35372 whole entry, looked up): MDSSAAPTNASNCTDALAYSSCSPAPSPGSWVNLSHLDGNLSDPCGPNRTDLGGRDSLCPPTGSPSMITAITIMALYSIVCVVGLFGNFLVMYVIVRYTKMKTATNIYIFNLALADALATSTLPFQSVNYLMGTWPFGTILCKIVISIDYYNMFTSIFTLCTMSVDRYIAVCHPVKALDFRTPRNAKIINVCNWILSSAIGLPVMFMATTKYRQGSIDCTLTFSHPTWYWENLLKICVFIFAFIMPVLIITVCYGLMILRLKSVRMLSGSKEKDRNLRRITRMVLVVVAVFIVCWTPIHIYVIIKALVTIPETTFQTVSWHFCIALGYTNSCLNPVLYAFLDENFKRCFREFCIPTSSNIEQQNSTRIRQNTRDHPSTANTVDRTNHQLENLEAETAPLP
# Mu-type opioid receptor (Homo sapiens) + Delta-type opioid receptor (Homo sapiens), sequence (P41143 whole entry, looked up): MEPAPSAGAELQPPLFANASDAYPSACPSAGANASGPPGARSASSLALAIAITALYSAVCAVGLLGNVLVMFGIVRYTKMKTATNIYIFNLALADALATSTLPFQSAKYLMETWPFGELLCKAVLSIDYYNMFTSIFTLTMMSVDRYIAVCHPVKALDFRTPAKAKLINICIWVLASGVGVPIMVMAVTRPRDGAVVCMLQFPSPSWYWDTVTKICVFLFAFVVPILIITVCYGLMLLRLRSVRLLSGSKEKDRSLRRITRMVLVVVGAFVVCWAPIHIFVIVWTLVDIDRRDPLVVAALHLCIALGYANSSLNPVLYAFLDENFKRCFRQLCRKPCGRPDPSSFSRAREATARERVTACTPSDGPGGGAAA
row,SMILES,EC50
1,CC(=O)c1cccc(-c2cnc3c(NC=O)cc(-c4ccccc4F)cn23)c1,> 64.6 µM (inactive)
2,COc1ccc(-c2cc(NC(C)=O)c3ncc(-c4ccccc4)n3c2)c(OC)c1,> 92.4 µM (inactive)
3,CCN1/C(=C/c2ccc3cc(C)ccc3[n+]2CC)Sc2cc(C)c(C)cc21,> 10.3 µM (inactive)
4,NC(N)=Nc1nc(-c2ccccc2)c2cc(Cl)ccc2n1,> 10.3 µM (inactive)
5,Cc1ccccc1-c1nc(-c2ccc(NC(=O)c3ccc(Br)o3)cc2)no1,> 92.5 µM (inactive)
6,COc1ccc(C(NC(=O)C2CCN(CCOc3ccc(Cl)cc3Cl)CC2)c2cccs2)cc1 (configuration not stated),inactive
7,Cc1ccc2[nH]c(=O)c3cc(C(=O)N(CCCOC(C)C)Cc4ccco4)sc3c2c1,> 92.5 µM (inactive)
8,COc1ccccc1-c1cc(NC=O)c2ncc(-c3cccc(C(F)(F)F)c3)n2c1,> 64.6 µM (inactive)
9,Cc1cccc(NC(=S)NC(=O)C(c2ccccc2)c2ccccc2)n1,> 92.5 µM (inactive)
10,CCc1ccc(OCCNc2cc(N3CCNC(C)C3)ccc2[N+](=O)[O-])cc1 (configuration not stated),> 92.5 µM (inactive)
11,Cc1ccc(-c2nnc(-c3ccc(NC(=O)Cc4cccs4)cc3)o2)cc1,> 64.6 µM (inactive)
12,Clc1ccc(Cn2ncc3c(N4CCN(c5ccccc5)CC4)ncnc32)cc1,> 92.3 µM (inactive)
13,C/C(=N\NC(=O)COc1cccc2ccccc12)c1cccs1,> 64.6 µM (inactive)
14,CCOc1cc(NC(=O)c2cccs2)c(OCC)cc1NC(=O)c1ccco1,> 92.3 µM (inactive)
15,COc1cc(O)c(CC=C(C)C)c(O)c1C(=O)CCc1ccc(O)cc1,> 64.6 µM (inactive)
16,COc1ccc(NC(=O)COC(=O)c2c(NC(C)=O)sc(C)c2C)cc1,> 92.5 µM (inactive)
17,Oc1ccc(N2CCN(c3ncnc4sc(-c5ccccc5)cc34)CC2)cc1,> 92.4 µM (inactive)
18,Cc1ccc(Sc2ccc(NC(=O)CCl)cc2)cc1C,inactive
19,Cc1ccc(O)c(C(=O)/C=C/c2ccc3c(c2)OCCO3)c1,> 92.5 µM (inactive)
20,CC(=O)Nc1cc(-c2ccc(S(C)(=O)=O)cc2)cn2c(-c3ccc(F)c(Cl)c3)cnc12,> 64.6 µM (inactive)
21,CN(C)CCNC(=O)c1cccc(-c2cnc3c(NC=O)cc(-c4cccc(C(F)(F)F)c4)cn23)c1,> 64.6 µM (inactive)
22,CCN1CCN(Cc2ccc(NC(=O)c3cc(NC(=O)c4cc5cccc(OC)c5o4)cc(OC)c3)cc2C(F)(F)F)CC1,> 64.6 µM (inactive)

row,SMILES,EC50
1,COc1cccc(-c2cnc3c(NC(C)=O)cc(-c4ccc(C(=O)N5CCOCC5)cc4)cn23)c1,> 64.6 µM (inactive)
2,COc1ccc2[nH]c3c(C)c4ccncc4c(C)c3c2c1,> 64.7 µM (inactive)
3,CC(=O)Nc1cc(-c2cccnc2)cn2c(-c3ccc(F)cc3)cnc12,> 64.6 µM (inactive)
4,COc1cc(NC(=O)COc2ccccc2[N+](=O)[O-])ccc1NC(=O)c1cccs1,> 92.5 µM (inactive)
5,Clc1ccc(C2=Nn3c(nnc3-c3cc(-c4ccccc4)n[nH]3)SC2)cc1,inactive
6,COc1ccc(NC(=O)Nc2nc(C(N)Cc3ccc(C(F)(F)F)cc3)cs2)cc1 (configuration not stated),> 64.6 µM (inactive)
7,NC(c1csc(NC(=O)Nc2cccc(Cl)c2)n1)C1CCCCC1 (configuration not stated),> 92.5 µM (inactive)
8,CCOc1ccc(NC(=O)CSc2nc(-c3cccs3)cc(C(F)(F)F)n2)c([N+](=O)[O-])c1,> 64.6 µM (inactive)
9,CC(=O)Nc1cc(-c2ccccc2N(C)C)cn2c(-c3ccc(F)c(Cl)c3)cnc12,> 64.6 µM (inactive)
10,NC(CCc1ccccc1)c1csc(Nc2ccc(C(=O)c3ccccc3)cc2)n1 (configuration not stated),> 92.5 µM (inactive)
11,CC(=O)Nc1cc(-c2cccnc2)cn2c(-c3cccc(C(F)(F)F)c3)cnc12,> 92.5 µM (inactive)
12,CCN1CCC(O)(/C=C/c2ccc(C(C)C)cc2)C(C(=O)/C=C/c2ccc(C(C)C)cc2)C1 (configuration not stated),> 64.6 µM (inactive)
13,Cc1ccc(OCC(=O)NC(=S)Nc2cccc(NC(=O)c3ccccc3)c2)cc1,> 64.6 µM (inactive)
14,CN(C)c1ccccc1-c1cc(NC=O)c2ncc(-c3cccc(C(F)(F)F)c3)n2c1,> 64.6 µM (inactive)
15,COc1ccc2c(c1)CCc1c(C(=O)Nc3ccn(Cc4ccc(C)cc4)n3)noc1-2,> 92.4 µM (inactive)
16,CC(=O)Nc1cc(-c2ccc(F)cc2)cn2c(-c3ccc(F)c(Cl)c3)cnc12,> 64.6 µM (inactive)
17,COc1cccc(-c2cnc3c(NC=O)cc(-c4ccc(O)c(OC)c4)cn23)c1,> 64.6 µM (inactive)
18,CCOc1ccc(NC(=S)NC(=O)/C=C/c2ccc(C)cc2)c([N+](=O)[O-])c1,> 64.6 µM (inactive)
19,CC(=O)Nc1cc(-c2ccccc2)cn2c(-c3ccc(F)cc3)cnc12,> 64.6 µM (inactive)
20,COc1cc(-c2cc(NC=O)c3ncc(-c4ccc(C(C)=O)cc4)n3c2)cc(OC)c1OC,> 92.5 µM (inactive)
21,CN(C)CCCN(C(=O)c1cc2cc([N+](=O)[O-])ccc2s1)c1nc2cc3c(cc2s1)OCCO3,> 92.5 µM (inactive)
22,O=C(N/N=C/c1c[nH]c2ccccc12)C1CC1(c1ccccc1)c1ccccc1 (configuration not stated),> 92.5 µM (inactive)

row,SMILES,EC50
1,Cc1cc(N2CCN(C(=O)c3ccco3)CC2)n2nc(-c3cccc(Cl)c3)cc2n1,> 64.6 µM (inactive)
2,COc1cccc2sc(N(CCCN(C)C)C(=O)C(c3ccccc3)c3ccccc3)nc12,> 64.6 µM (inactive)
3,Cc1cc(C)c(CN2CCN(CCCn3cnc(C(=O)Nc4ccc(C)c(C)c4)n3)CC2)c(C)c1,> 92.5 µM (inactive)
4,Cc1cccnc1C(c1ccc(F)cc1)N(C)C(=O)C1CCN(CCOc2ccc(Cl)cc2Cl)CC1 (configuration not stated),> 92.5 µM (inactive)
5,CC(=O)Nc1cc(-c2cccc(C(=O)NCCN(C)C)c2)cn2c(-c3cccc(C(F)(F)F)c3)cnc12,> 92.5 µM (inactive)
6,COc1ccc(-c2cc(NC=O)c3ncc(-c4cccc(C(F)(F)F)c4)n3c2)cc1OC,> 64.6 µM (inactive)
7,COc1ccc(-c2cnc3c(NC(C)=O)cc(-c4cc(F)ccc4OC)cn23)cc1OC,> 64.6 µM (inactive)
8,Clc1ccccc1/C=N/NC1=Nc2cccc3cccc1c23,> 64.6 µM (inactive)
9,O=C(Nc1nc2ccc(SC(F)F)cc2s1)c1ccc(NS(=O)(=O)c2ccc(F)c(F)c2)cc1,> 64.6 µM (inactive)
10,O=C(NC(c1ccccc1)c1ccsc1)C1CCN(CCOc2ccc(Cl)cc2Cl)CC1 (configuration not stated),inactive
11,C/C(=C\c1ccco1)C1C(C#N)=C(N)Oc2n[nH]c(-c3ccc(C)cc3)c21 (configuration not stated),> 64.6 µM (inactive)
12,COc1ccc(-c2cc(NC=O)c3ncc(-c4ccccc4)n3c2)cc1OC,> 64.6 µM (inactive)
13,COc1ccc(C(NC(=O)C2CCN(CCOc3ccc(Cl)cc3Cl)CC2)c2ccccc2C)cn1 (configuration not stated),> 64.6 µM (inactive)
14,COc1ccc(/C=N/NC(=O)c2ccc(COc3ccccc3Cl)o2)c(OC)c1C,> 64.6 µM (inactive)
15,COc1ccc(-c2csc(C3=C(O)CN(Cc4ccc(Cl)cc4)C3=N)n2)cc1OC,> 64.6 µM (inactive)
16,CC(O)CC(=O)OC[C@]12CC[C@H]3[C@@](C)(CC[C@H]4C(C)(C)CCC[C@]34C)[C@@H]1CC(C1=CC(=O)OC1O)O2 (some centres not stated),> 64.6 µM (inactive)
17,COc1ccc(-c2ccc3c(c2)S(=O)(=O)c2cccc(C(=O)NCc4cc(C)oc4C(F)(F)F)c2C3=O)cc1OC,> 92.5 µM (inactive)
18,CC(=O)Nc1cc(-c2ccccc2N(C)C)cn2c(-c3ccccc3)cnc12,> 92.4 µM (inactive)
19,CCC(C)NC(=O)c1c(N)n(/N=C/c2cccnc2)c2nc3ccccc3nc12 (configuration not stated),> 92.4 µM (inactive)
20,CC(=O)Nc1cc(-c2ccc(CO)cc2)cn2c(-c3cccc(C(F)(F)F)c3)cnc12,> 64.6 µM (inactive)
21,CC(C)CC(N)c1csc(Nc2ccc(C(F)(F)F)cn2)n1 (configuration not stated),> 92.5 µM (inactive)
22,COc1ccc(CNC(=O)Nc2nc(C(N)Cc3ccc(C(F)(F)F)cc3)cs2)cc1 (configuration not stated),> 64.6 µM (inactive)

row,SMILES,EC50
1,O=C1OC(c2ccccc2)(c2ccc(O)cc2)c2ccccc21 (configuration not stated),> 92.5 µM (inactive)
2,COc1cccc(-c2cnc3c(NC=O)cc(-c4cccc(C(=O)N(C)C)c4)cn23)c1,> 64.6 µM (inactive)
3,Cc1ccc(NC(=O)c2ccccc2OCC(=O)c2ccc(F)cc2)cc1,> 92.5 µM (inactive)
4,CCCCCCCCCCCCCCCC[N+](C)(C)Cc1ccc(F)cc1,> 92.5 µM (inactive)
5,Cc1nc(NC(=O)c2cccc(-c3cc4ccccc4oc3=O)c2)ccc1Br,> 64.6 µM (inactive)
6,COc1cc(NC(=O)Nc2nc(C(N)Cc3ccc(C(F)(F)F)cc3)cs2)cc(OC)c1OC (configuration not stated),> 10.3 µM (inactive)
7,COc1cc(-c2cc(NC=O)c3ncc(-c4cccc(C(F)(F)F)c4)n3c2)cc(OC)c1OC,> 64.6 µM (inactive)
8,CC(=O)Nc1cc(-c2ccc(C(=O)NC3CC3)cc2)cn2c(-c3cccc(C(F)(F)F)c3)cnc12,> 64.6 µM (inactive)
9,Cc1ccc(NC(=O)c2ncn(CCCN3CCN(Cc4cccc5ccccc45)CC3)n2)cc1C,> 92.5 µM (inactive)
10,Cc1c(CN2CCC(CO)(CCOc3ccccc3)CC2)[nH]c2c(Cl)cccc12,> 92.5 µM (inactive)
11,Cc1cc(C)cc(OCC(O)CN2CCC(CN3C(=O)c4cccc5cccc(c45)C3=O)CC2)c1 (configuration not stated),> 64.6 µM (inactive)
12,CCc1ccc(CCC(=O)Nc2ncc(Cc3ccccc3Cl)s2)o1,> 92.5 µM (inactive)
13,Cc1ccc2sc(N(CCCN(C)C)C(=O)c3ccc(Br)s3)nc2c1C,> 64.6 µM (inactive)
14,CCCCCCOc1ccc(/C(C)=N/NC2=NCCN2)cc1,> 92.4 µM (inactive)
15,COc1ccc(-c2sc3ccccc3c2-c2ccc(OCCN(C)C)cc2)cc1,> 92.5 µM (inactive)
16,COc1cccc(-c2cnc3c(NC(C)=O)cc(-c4cc(F)ccc4OC)cn23)c1,> 92.5 µM (inactive)
17,O=C(N=Nc1c(O)n(Cc2ccccc2)c2ccccc12)c1cc2ccccc2cc1O,> 92.5 µM (inactive)
18,CCOc1ccc(Cn2c3ccc(OC)cc3c3nc4ccccc4nc32)cc1,> 64.6 µM (inactive)
19,CCc1ccc(C2CC(c3ccc(F)cc3)Nc3nc(N)nn32)cc1 (configuration not stated),> 92.5 µM (inactive)
20,COc1ccccc1-c1cc(NC=O)c2ncc(-c3ccc(F)cc3)n2c1,> 92.4 µM (inactive)
21,COc1ccc(COc2ccsc2C(=O)Nc2ccc(Cl)c(Cl)c2)cc1,> 64.6 µM (inactive)
